Results taken from paper PMC11435625, “In Vitro Hepatic Clearance Evaluations of Per- and Polyfluoroalkyl Substances (PFAS) across Multiple Structural Categories” (Toxics, 2024).
Like-named read-outs stand apart in the source and are kept apart here.

Tests used:
[1] = test system: pooled primary human hepatocyte suspensions; assay: Hepatic clearance assay (substrate depletion, LC-MS); details: for In Vitro Clint: Table 3, 0 = no significant clearance
Method in brief: (§1)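 Substrate depletion at 1 μM PFAS in pooled cryopreserved human hepatocytes (~0.5 × 10^6 viable cells/mL, 50-donor pool), 37 °C with shaking, sampled 0–240 min in triplicate. Quantified by LC-MS in negative ion mode against matrix-matched calibration; media-only or heat-inactivated cells as nonmetabolic-loss controls.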

[2] = IVIVE: steady-state concentration (Css), generic HTTK model; set-up: species or system human; details: for Css: human steady-state concentration, 1 mg/kg/day exposure rate, loss of parent compound only; for Css (mg/L) / Css (uM): Assuming 1 mg/kg/day dose rate, BW 70 kg; for CLhep: QL 1500000 uL/min; for Fub: fub=fup/(B:P), Fub set to 1 if needed; for CLint: scaled to whole liver: HPGL 110 mill cells/g, Vl 1596 g
Method in brief: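 Human Css estimated by IVIVE: plasma protein binding converted to blood fraction unbound via blood-to-plasma partitioning, and experimental Clint scaled with liver scalars to whole liver clearance. AEDs then derived by reverse dosimetry from Css and PFAS in vitro POD, defined as fifth-percentile AC50.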

[3] = Administered equivalent dose (AED) by reverse dosimetry; set-up: species or system human; details: from Css and AC50 POD by reverse dosimetry
Description: IVIVE was performed as previously described to calculate human steady-state concentrations (Css). Briefly, experimental plasma protein binding data presented elsewhere were transformed to fraction unbound in blood using blood-to-plasma partitioning values. Experimental Clint values generated here are used in conjunction with relevant liver scalars to scale up to estimate whole liver clearance. […] Once Css values were established, these were used with the PFAS-specific in vitro POD data to calculate the administered equivalent doses (AEDs) using reverse dosimetry. […] The fifth-percentile AC50 value was used to define the in vitro POD. All relevant inputs, scalars, and calculations are provided in Supplementary Information, as indicated in the results.

[4] = set-up: method as in PMID 26085347; details: simulation; cited from earlier work
plasma protein = details: cited from earlier work; for fup (fraction unbound in plasma): human plasma
[5] = test system: pooled primary human hepatocyte suspensions; assay: Bayesian (MCMC, invitroTKstats) analysis of hepatic clearance data; details: for Clint.1.Med: Level-4 Bayesian estimate, posterior median, Clint.1 series (Clint.10 all NA); for metabolic clearance call, experimental and Bayesian analyses in agreement: both analyses agreed
Description: (§2) Markov Chain Monte Carlo was employed in a Bayesian analysis to estimate uncertainty of the hepatic clearance point measures as previously described, but with some modifications [10]. Briefly, after organizing PFAS-level data into a single file, the relationship between the relevant measurement process parameters was described in a graphic model in JAGS language [13] interfaced through R. For hepatic clearance data, the model describes the PFAS-specific mass spectrometric response factor between analyte peak ratio (to internal standard) and chemical concentration. […] The assumed prior for whether the chemical degraded abiotically in vitro followed a Bernoulli distribution with a 5% chance of abiotic degradation. Separate biotic and abiotic components for chemical elimination were estimated, each with a slope following an assumed uniform prior distribution bounded between the zero and the -log (limit of quantitation/Ctest). In scenarios where an external calibration without internal standard was used, the response factor was calculated using the analyte peak alone, introducing additional uncertainty due to the inability to normalize for recovery issues. The model was analyzed jointly by JAGS using five Markov chains. Convergence was identified by requiring the five chains to be consistent, as indicated by the potential scale reduction factor [14] being less than 1.1. The analysis was performed using EPA-developed R package invitroTKstats, available upon request.

[6] = Hepatic clearance assay (substrate depletion, LC-MS); details: both, human
Method in brief: as §1

[7] = set-up: method as in PMID 32648786; details: human; cited from earlier work
[8] = test system: pooled primary human hepatocyte suspensions; details: both, hepatocytes, 1 μM
Description: as §2

[9] = set-up: method as in PMID 36851038; details: dynamic one-compartment model; cited from earlier work
[10] = unadjusted hepatic intrinsic clearance, pooled primary human hepatocyte suspensions, Table S4, in µL/min/10^6 cells
[11] = pooled human hepatocyte suspension, 1 μM
[12] = CLint value carried into HTTK/IVIVE, in µL/min/10^6 cells
[13] = pooled primary human hepatocyte suspensions, in µL/min/10^6 cells

With `O=C(O)C(F)(F)C(F)(F)C(F)(F)C(F)(F)C(F)(F)C(F)(F)C(F)(F)F` [PFOA, Perfluorooctanoic acid] the “Unadj Clint” value ([1]; unadjusted hepatic intrinsic clearance, pooled primary human hepatocyte suspensions, Table S4, listed as Perfluorooctanoic acid, in µL/min/10^6 cells) was 1.49, the Css [2] was 582.99 µM and the AED [3] was 0.01 mg/kg/day. The “time to reach steady state” value [4] was 3.5 years and the “fup (fraction unbound in plasma)” value (plasma protein) was 0.0010.

For `O=C(O)C(F)(F)C(F)(F)C(F)(F)C(F)(F)C(F)(F)C(F)(F)C(F)F` [8H-PFOA, 8H-Perfluorooctanoic acid], the “Unadj Clint” value [1, 10] was 0.00, the Css [2] was 290.23 µM and the AED [3] was 0.04 mg/kg/day. The “fup (fraction unbound in plasma)” value (plasma protein) was 0.0021 and the Clint.1.Med [5] was 0.

For `O=S(=O)(O)C(F)(F)C(F)(F)C(F)(F)C(F)(F)F` [PFBS, Perfluorobutanesulfonic acid], the hepatocyte CLint at 1 μM ([6]; hepatocytes) was 4.75 µL/min/1e6 cells, the “In Vitro Clint” value [1, 11] was 4.75 μL/min/million cells and the “Unadj Clint” value [1, 10] was 4.75. For the same molecule, the Css [2] was 7.51 µM, the AED [3] was 0.83 mg/kg/day and the estimated half life [7] was “as low as one month”. For the same molecule, the “fup (fraction unbound in plasma)” value (plasma protein) was 0.0128.

In the case of `O=S(=O)(O)CCC(F)(F)C(F)(F)C(F)(F)C(F)(F)C(F)(F)C(F)(F)C(F)(F)C(F)(F)F` [8:2 FTS, 8:2 Fluorotelomer sulfonic acid], the hepatocyte CLint at 1 μM ([6]; cryopreserved pooled primary human hepatocyte suspensions) is reported as 1.53 µL/min/1e6 cells and the “Unadj Clint” value [1, 10] is reported as 1.53.

In the case of `O=C(O)CCC(F)(C(F)(F)F)C(F)(F)F`, the “CLint for HTTK” value ([1]; both, human, hepatocytes, 1 μM) is reported as 0, the “Unadj Clint” value ([1]; both, human, hepatocytes, 1 μM) is reported as 0.00 and the “in vitro CLint exp assay” value ([1]; both, human, hepatocytes, 1 μM) is reported as 0. For the same molecule, the “Css (mg/L)” value [2] was 2.52 mg/L, the “Css (uM)” value [2] was 10.43 µM and the “CLhep” value [2] was 0.000 L/h. For the same molecule, the Fub [2] was 0.1738, the “CLint” value [2] was 0 µL/min and the Clint.1.Med [8] was 0. For the same molecule, the Mean fu (plasma protein; plasma) was 0.0956.

In the case of `O=C(O)CCC(F)(F)C(F)(F)C(F)(F)C(F)(F)C(F)(F)F` [5:3 FTCA, 2H,2H,3H,3H-Perfluorooctanoic acid], the hepatocyte CLint at 1 μM ([6]; hepatocytes) is reported as 11.8 µL/min/1e6 cells, the “In Vitro Clint” value [1, 11] is reported as 11.84 μL/min/million cells and the “Unadj Clint” value [1, 10] is reported as 11.84. The Css [2] was 6.18 µM, the AED [3] was 0.99 mg/kg/day and the “fup (fraction unbound in plasma)” value (plasma protein) was 0.0059. The “metabolic clearance call, experimental and Bayesian analyses in agreement” value [5] was “metabolized”.

For `O=C(O)CCC(F)(F)C(F)(F)C(F)(F)C(F)(F)C(F)(F)C(F)(F)C(F)(F)F` [7:3 FTCA, 3-Perfluoroheptylpropanoic acid], the hepatocyte CLint at 1 μM ([6]; hepatocytes) was 15.7 µL/min/1e6 cells, the “CLint for HTTK” value [1, 12] was 13.21 and the “In Vitro Clint” value [1, 11] was 15.7 μL/min/million cells. For the same molecule, the “in vitro CLint exp assay” value [1, 13] was 13.21, the “Unadj Clint” value [1, 10] was 19.74 and the “Css (mg/L)” value [2] was 2.20 mg/L. For the same molecule, the “Css (uM)” value [2] was 4.99 µM, the “CLhep” value [2] was 1.272 L/h and the Fub [2] was 0.009273. For the same molecule, the Css [2] was 4.99 µM, the “CLint” value [2] was 2319148 µL/min and the AED [3] was 0.19 mg/kg/day. For the same molecule, the “fup (fraction unbound in plasma)” value (plasma protein) was 0.0051, the Clint.1.Med [5] was 15.6 and the “metabolic clearance call, experimental and Bayesian analyses in agreement” value [5] was “metabolized”.

For `O=C(O)CCC(F)(F)C(F)(F)C(F)(F)C(F)(F)C(F)(F)C(F)(F)F` [6:3 FTCA, 6:3 Fluorotelomer carboxylic acid], the “CLint for HTTK” value [1, 12] was 5.05, the CLint ([1]; Table 2, pooled human hepatocyte suspension, 1 μM, 0-240 min, 0 = slope not significant (p>0.05)) was 5.05 μL/min/million cells and the “In Vitro Clint” value [1, 11] was 5.05 μL/min/million cells. The “in vitro CLint exp assay” value [1, 13] was 5.05, the “Css (mg/L)” value [2] was 11.76 mg/L and the “Css (uM)” value [2] was 30.01 µM. The “CLhep” value [2] was 0.222 L/h, the Fub [2] was 0.004182 and the Css [2] was 30.01 µM. The “CLint” value [2] was 886578 µL/min, the AED [3] was 0.18 mg/kg/day and the “fup (fraction unbound in plasma)” value (plasma protein) was 0.0023. It also gave a Clint.1.Med [5] of 0.

In the case of `CCNS(=O)(=O)C(F)(F)C(F)(F)C(F)(F)C(F)(F)C(F)(F)C(F)(F)C(F)(F)C(F)(F)F` [NEtFOSA, N-Ethylperfluorooctanesulfonamide], the hepatocyte CLint at 1 μM ([6]; hepatocytes) is reported as greater than 15 µL/min/1e6 cells, the “Unadj Clint” value ([1]; both, human, hepatocytes, 1 μM) is reported as 24.92 and the Clint.1.Med [8] is reported as 164.

With `O=C(O)C(F)(F)C(F)(F)C(F)(F)OC(F)(C(F)(F)F)C(F)(F)F` [PFPE-1, Perfluoro-4-isopropoxybutanoic acid] the hepatocyte CLint at 1 μM ([6]; hepatocytes) was 5.78 µL/min/1e6 cells and the “Unadj Clint” value [1, 10] was 5.78.

For `O=S(=O)(O)CCC(F)(F)C(F)(F)C(F)(F)C(F)(F)F` [4:2 FTS, 4:2 Fluorotelomer sulfonic acid], the hepatocyte CLint at 1 μM ([6]; hepatocytes) was 4.28 µL/min/1e6 cells, the “In Vitro Clint” value [1, 11] was 4.28 μL/min/million cells and the “Unadj Clint” value [1, 10] was 4.28. For the same molecule, the Css [2] was 19.12 µM and the “fup (fraction unbound in plasma)” value (plasma protein) was 0.0050.

For `NS(=O)(=O)C(F)(F)C(F)(F)C(F)(F)C(F)(F)C(F)(F)C(F)(F)C(F)(F)C(F)(F)F` [PFOSA, Perfluorooctanesulfonamide], the hepatocyte CLint at 1 μM ([6]; hepatocytes) was greater than 15 µL/min/1e6 cells, the “Unadj Clint” value ([1]; both, human, hepatocytes, 1 μM) was 22.84 and the Clint.1.Med [8] was 0.

For `O=S(=O)(O)CCC(F)(F)C(F)(F)C(F)(F)C(F)(F)C(F)(F)C(F)(F)F` [6:2 FTS, 6:2 Fluorotelomer sulfonic acid], the hepatocyte CLint at 1 μM ([6]; hepatocytes) was 1.4 µL/min/1e6 cells, the “In Vitro Clint” value [1, 11] was 1.4 μL/min/million cells and the “Unadj Clint” value [1, 10] was 1.40. The Css [2] was 12.36 µM, the AED [3] was 0.89 mg/kg/day and the “fup (fraction unbound in plasma)” value (plasma protein) was 0.0143.

In the case of `O=S(=O)(O)C(F)(F)C(F)(F)C(F)(F)C(F)(F)C(F)(F)C(F)(F)C(F)(F)C(F)(F)F` [PFOS, Perfluorooctanesulfonic acid], the “Unadj Clint” value ([1]; unadjusted hepatic intrinsic clearance, pooled primary human hepatocyte suspensions, Table S4, listed as Perfluorooctanesulfonic acid, in µL/min/10^6 cells) is reported as 1.38, the Css [2] is reported as 98.52 µM and the AED [3] is reported as 0.08 mg/kg/day. For the same molecule, the “time to reach steady state” value [4] was 6.6 years, the “time to reach steady-state values” [9] was 30 years and the “fup (fraction unbound in plasma)” value (plasma protein) was 0.0049.

With `O=C(O)C=CC(F)(C(F)(F)F)C(F)(F)F` [3-(Perfluoroisopropyl)-2-propenoic acid] the “CLint for HTTK” value [1, 12] was 0, the “in vitro CLint exp assay” value [1, 13] was 0 and the “Unadj Clint” value [1, 10] was 1.23. The “Css (mg/L)” value [2] was 2.41 mg/L, the “Css (uM)” value [2] was 10.03 µM and the “CLhep” value [2] was 0.000 L/h. For the same molecule, the Fub [2] was 0.1824, the “CLint” value [2] was 0 µL/min and the Clint.1.Med [8] was 0. For the same molecule, the Mean fu (plasma protein; fraction unbound in plasma, input for IVIVE calculations) was 0.1003.
